Columns and labels:
GJA5 [1] = assay: Gene expression in 3D suspension aggregates 48 h after removal of the agent: GJA5; type: cell-based, human; settings: 10 μM for about 120 h, measured 48 h after treatment, 3D aggregates
Description: (§1) In order to verify the lasting effect and the robustness across different culture systems, we tested the effect of the antiarrhythmic agents on the gene expression profile of the stem-cell derived cardiomyocytes using 3D suspension aggregates and measured the gene expression 48 h after removal of the anti-arrhythmic agents.
(§2) The aggregates were subsequently maintained in 6-well suspension plates on an orbital shaker (75 rpm) at a cell density of about 1.5×10^6 cells/ml in 3 mL medium.

ACTA2 = assay: Nanostring gene expression, hESC-derived cardiomyocytes in monolayer: ACTA2; type: cell-based, human; settings: 5 days exposure to 0.1 μM and 1 μM amiodarone (FIG. 7)
Description: (§3) Blank medium, addition of solvents as well as cardiomyocytes cultured for 9 days and day 42 were used as control. Beating of cells was assessed after 48 h, 72 h and 96 h. Cells were harvested following incubation for 10 minutes in RLTplus buffer (Qiagen). Changes in gene expression were determined using a custom nanostring gene panel (NanoString Technologies) according to manufacturer's instruction for the following target sequences including 7 housekeeping genes listed in Table 1.
(§4) To study the direct impact of antiarrhythmic drugs on the properties of hESC-derived cardiomyocytes, changes in expression level of selected genes were analyzed that are associated with action potential formation (HCN1, HCN4, KCNA5, KCNE4, KCNH7, KCNJ3, KCNJ5, SCN1B, SCN5A), electrical signal propagation (GJA1, GJA5, GJD3), calcium handling (CACNA1C, CACNA1D, CACNA1G, RYR2, PLN), cardiac maturation (HOPX, MYH7, MYL2, TNN13) and cardiac hypertrophy (NPPA, NPPB) as well as pan-cardiomyocyte markers (NKX2-5, TNNT2, ACTA2).

[2] = test system: human induced pluripotent stem cell derived cardiomyocytes (iCell2 cardiomyocytes); assay: Ca2+-recordings, beat-to-beat variability (CV), single agents; type: cell-based; settings: 24 h after withdrawal
Text: In order to determine the lasting impact on the electrophysiological properties of the stem-cell derived cardiomyocytes following exposure to anti-arrhythmic agents, we conducted functional cardiomyocyte testing by means of Ca^2+-recordings and determined the arrhythmogenic potential of the stem-cell derived cardiomyocyte population after exposure to the anti-arrhythmic agents. […] (Kazuto Yamazaki et al, Beat-to-Beat Variability in Field Potential Duration in Human Embryonic Stem Cell-Derived Cardiomyocyte Clusters for Assessment of_Arrhythmogenic Risk, and a Case Study of Its Application, Pharmacology & Pharmacy, Vol. 5 No. 1, 2014, pp. 117-128). Of note, all Ca^2+-recordings were conducted at least 24 h after exposure to exclude the known direct effects of the agents via ion channel modulation. […] The cells were delivered as frozen vials and stored until use in liquid nitrogen. All culturing media necessary for thawing and culturing was supplied by the cell supplier. Thawing, plating and cultivation procedures were followed according to the protocol supplied by the manufacturer. Cells were plated directly onto the 384-well Greiner μClear plates coated with fibronectin. […] Media was changed (90%) one day after plating and then every second day and 3 hours before the experiments for the pilot study. […] Treatment was ended by exchanging medium to standard cultivation medium on DIV 6. Recording took place at DIV 7. Experiments were performed at a minimum of n=10 for each compound concentration. For Ca^2+ imaging experiments media was exchanged for the recordings by a HEPES buffered recording solution. A fluorescent Ca^2+ indicator (Cal-520-AM) was applied at a concentration of 2 μM and allowed to accumulate in the cells for 30 min before the buffer was exchanged again to dye-free buffer. Cells were allowed to recover for 10 min at 37° C. in the Hamamatsu FDSS recording system. All experiments were performed at 37° C. The framerate of the camera was set to a minimum of 35 Hz for recording and a binning of 4×4. To assess if the quality was sufficient for the experiments several parameters were reviewed (by-eye inspection), including regularity of the beating, shape and amplitude of the Ca^2+ signals and variability of these parameters between the different wells. Since the cells were spontaneously active, no electrical stimulation was applied. Cells were recorded for 5 min prior to compound application. 200 μM Moxifloxacin was applied after the baseline phase in a single-concentration-per-well fashion, followed by a wash-in phase of 5 min. Fluorescent activity was then recorded for additional 5 min. Moxifloxacin without compound preincubation was included as control (n=18), distributed over multiple plates. […] Coefficient of variation was calculated as where σ denotes the standard deviation and p represents the mean.

GJA5 [3] = assay: Nanostring gene expression, hESC-derived cardiomyocytes in monolayer: GJA5; type: cell-based, human; settings: 0.1 μM and 1 μM, 5 days exposure
Description: as §3, §4

NKX2-5 = assay: Nanostring gene expression, hESC-derived cardiomyocytes in monolayer: NKX2-5; type: cell-based, human
Description: as §3, §4

NPPA [4] = assay: Gene expression in 3D suspension aggregates 48 h after removal of the agent: NPPA; type: cell-based, human; settings: 10 μM for about 120 h, measured 48 h after treatment, 3D aggregates
Description: as §1, §2

TNNT2 = assay: Nanostring gene expression, hESC-derived cardiomyocytes in monolayer: TNNT2; type: cell-based, human
Description: as §3, §4

NPPA [5] = assay: Nanostring gene expression, hESC-derived cardiomyocytes in monolayer: NPPA; type: cell-based, human
Description: as §3, §4

[6] = test system: hESC-derived cardiomyocytes; assay: Beating of hESC-derived cardiomyocytes after exposure to antiarrhythmic drugs; type: cell-based, human
Description: Dissociated cardiomyocytes were seeded in RPMI1640 medium supplemented with 2% B27 and 0.1% Pen/Strep (Gibco) on laminin-521 or geltrex (Life Technologies)-coated plates at a cell density of 1×10^5/cm^2. […] Blank medium, addition of solvents as well as cardiomyocytes cultured for 9 days and day 42 were used as control. Beating of cells was assessed after 48 h, 72 h and 96 h.

[7] = cited from earlier work
[8] = 10 nM, proarrhythmic conditions (moxifloxacine)
[9] = 100 nM, proarrhythmic conditions (moxifloxacine)

Row | Compound | reduction of CV (beat-to-beat variability) compared to control ([2]; 10 nM, baseline conditions) | reduction of CV (beat-to-beat variability) compared to control [2, 8] | reduction of CV (beat-to-beat variability) compared to control ([2]; 100 nM, baseline conditions) | reduction of CV (beat-to-beat variability) compared to control [2, 9] | typical plasma concentrations in vivo [7] | further results
1 | CCCCc1oc2ccccc2c1C(=O)c1cc(I)c(OCCN(CC)CC)c(I)c1 [amiodarone] | 76.5% | 83.3% | – | – | – | increase in GJA5 (GJA5 [1]): about 2.7 fold; changes of the expression of ACTA2 (ACTA2): did not result in changes; upregulation of GJA5 (GJA5 [3]): > 3 fold; changes of the expression of NKX2-5 (NKX2-5; 5 days exposure to 0.1 μM and 1 μM amiodarone (FIG. 5)): did not result in changes; decrease in NPPA (NPPA [4]): about 2 fold; changes of the expression of TNNT2 (TNNT2; 5 days exposure to 0.1 μM and 1 μM amiodarone (FIG. 6)): did not result in changes; reduction in NPPA expression (NPPA [5]; amiodarone treatment, 5 days exposure to 0.1 μM and 1 μM (FIG. 3)): about 3 fold; beating frequency ([6]; 1 μM): clearly reduced; beating frequency ([6]; 10 μM): abrogated
2 | Cc1cccc(C)c1OCC(C)N (stereo not drawn) [Mexiletine, mexiletine] | – | – | 76.79% | 77.5% | 0.6 to 1.7 µg/mL | –
3 | CCN(CC)CC(=O)Nc1c(C)cccc1C [Lidocaine, lidocaine] | – | – | 80.8% | 84.7% | – | expression of NKX2-5 (NKX2-5; 1 μM, 10 μM and 100 μM lidocaine, 5 days (FIG. 11)): without effecting the expression; expression of TNNT2 (TNNT2; 1 μM, 10 μM and 100 μM lidocaine, 5 days (FIG. 12)): without effecting the expression; NPPA expression (NPPA [5]; 1 μM, 10 μM and 100 μM lidocaine, 5 days, concentration dependent (FIG. 9)): decreased
4 | CC(C)NCC(O)COc1cccc2ccccc12 (stereo not drawn) [propranolol] | – | – | 73.7% | 88.5% | 0.0021 to 0.3 µg/mL | –
5 | COCCc1ccc(OCC(O)CNC(C)C)cc1 (stereo not drawn) [metoprolol] | 79.2% | 83.2% | – | – | – | –
6 | CC(C)NCC(O)c1ccc(NS(C)(=O)=O)cc1 (stereo not drawn) [Sotalol, sotalol] | – | – | 79.4% | 84.9% | 1 to 3 µg/mL | –

From US20220257665A1, “APPLICATION OF […] AGENTS TO STEM CELL DERIVED CARDIOMYOCYTES AND USES THEREOF” (priority 2019, published 2022)
